We go through one compound from patent US20170196854A1, “USE OF ANTHELMINTIC AGENTS AGAINST DIROFILARIA IMMITIS” (INTERVET INTERNATIONAL B.V., priority 2014, published 2017).

The subject of assay [1] is Dirofilaria immitis microfilariae. Description: Microfilaricidal activity against Dirofilaria immitis microfilariae in 96-well plates. Type of assay: cell-based. The conditions noted are these: in Canis lupus familiaris, read-out: EC50 (half maximal effective concentration), microfilaricidal activity.
Assay [2] deals with L4 larvae of Dirofilaria immitis. Description: microbe, parasite or virus in culture. The conditions noted are these: 72 h, read-out: MIC100 (lowest dose that results in complete loss of motility). Type of assay: cell-based.

On to `C[C@@H](CN1CCN(c2ccc(OC(F)(F)F)cc2)CC1)C(=O)N1CCC(Nc2ccc([N+](=O)[O-])c(C(F)(F)F)c2)CC1` [Example 1037], for which the EC50 in assay [1] is under 10 µM. Also, the MIC in assay [2] is under 5 µM.
